Data set [1] deals with recombinant NL4-3 virus (nef section replaced with Renilla luciferase gene) in MT-2 cells. The data set can be described thus: HIV cell culture assay (antiviral activity, luciferase readout). The settings on record: MT-2 cells infected for 4-5 days with recombinant NL4-3 luciferase virus. The data set is classed as cell-based. The gist of the method: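 NL4-3 reporter virus carrying Renilla luciferase in place of part of nef, produced in 293T cells, was used to infect MT-2 cells for 4-5 days with serial compound dilutions. Luciferase activity was read with a live-cell substrate; EC50 derived from the median effect equation.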

The test system of another data set is uninfected MT2 cells. The data set can be described thus: Compound cytotoxicity, XTT-based colorimetric assay. The settings on record: Table 1a, day 4, XTT. The data set is classed as cell-based. Summed up: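 CC50 from uninfected MT2 cells run under the antiviral-assay protocol without virus. Viability read on day 4 by XTT colorimetric assay.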
(In general: Formazan colour is commonly taken as a measure of viable cells.)

As a reminder, the EC50 is the concentration needed to bring the measured effect to its halfway point. Usually CC50 stands for the concentration that lowers cell viability or growth by half. `Cn1nc(NS(C)(=O)=O)c2c(Cl)ccc(-c3cc4cc[nH]c4nc3C(Cc3cc(F)cc(F)c3)NC(=O)Cn3nc(C(F)F)c4c3C(F)(F)[C@@H]3C[C@H]43)c21` (single isomer, unassigned) [Example 86]: the EC50 in data set [1] (Table 1a) turned out to be 1100 nM. In addition, the half-maximal cytotoxic concentration (CC50) with uninfected MT2 cells is > 10000 nM.

On to `CS(=O)(=O)Nc1nn(CC(F)F)c2c(-c3cc4[nH]ncc4nc3[C@H](Cc3cc(F)cc(F)c3)NC(=O)Cn3nc(C(F)F)c4c3C(F)(F)[C@@H]3C[C@H]43)ccc(Cl)c12` (single isomer, unassigned) [Example 93], for which the 50% effective concentration (EC50) in data set [1] (Table 1a) stood at 0.099 nM. Further, the CC50 in the data set with uninfected MT2 cells was > 10000 nM.

As for `CS(=O)(=O)Nc1nn(CC(F)(F)F)c2c(-c3cc4[nH]ncc4nc3[C@H](Cc3cc(F)cc(F)c3)NC(=O)Cn3nc(C(F)F)c4c3C(F)(F)[C@@H]3C[C@H]43)ccc(Cl)c12` (single isomer, unassigned) [Example 95], the EC50 in data set [1] (Table 1a) worked out at 0.094 nM. The CC50 in the data set on uninfected MT2 cells was > 1000 nM.

In the case of `Cc1cccc2c(=O)n(-c3ccc(Cl)c4c(NS(C)(=O)=O)nn(C)c34)c([C@H](Cc3cc(F)cc(F)c3)NC(=O)Cn3nc(C(F)F)c4c3C(F)(F)[C@@H]3C[C@H]43)nc12` (single isomer, unassigned) [Example 98], the EC50 in data set [1] (Table 1a) came out at 0.747 nM. The CC50 in the data set on uninfected MT2 cells is > 1000 nM.

For `Cn1nc(NS(C)(=O)=O)c2c(Cl)ccc(-n3c([C@H](Cc4cc(F)cc(F)c4)NC(=O)Cn4nc(C(F)F)c5c4CCC5)nc4c(F)cc(F)cc4c3=O)c21` (single isomer, unassigned) [Example 100], in data set [1] (Table 1a), the half-maximal effective concentration (EC50) was 0.033 nM. Moreover, in the data set on uninfected MT2 cells, the CC50 was > 1000 nM.

Take `Cn1nc(NS(C)(=O)=O)c2c(Cl)ccc(-n3c([C@H](Cc4cc(F)cc(F)c4)NC(=O)Cn4nc(C(F)F)c5c4C(F)(F)[C@@H]4C[C@H]54)nc4c(Cl)cccc4c3=O)c21` (single isomer, unassigned) [Example 102]: the half-maximal effective concentration (EC50) in data set [1] (Table 1a) turned out to be 1.04 nM. Moreover, the cytotoxic concentration (CC50) with uninfected MT2 cells was > 1000 nM.

As for `COc1cccc2c(=O)n(-c3ccc(Cl)c4c(NS(C)(=O)=O)nn(C)c34)c([C@H](Cc3cc(F)cc(F)c3)NC(=O)Cn3nc(C(F)F)c4c3C(F)(F)[C@@H]3C[C@H]43)nc12` (single isomer, unassigned) [Example 104], the EC50 in data set [1] (Renilla, NL43, Table 1a) was 0.064 nM. For the same compound, the cytotoxic concentration (CC50) in the data set with uninfected MT2 cells is > 1000 nM.

`Cc1c(F)ccc2c(=O)n(-c3ccc(Cl)c4c(NS(C)(=O)=O)nn(C)c34)c([C@H](Cc3cc(F)cc(F)c3)NC(=O)Cn3nc(C(F)F)c4c3C(F)(F)[C@@H]3C[C@H]43)nc12` (single isomer, unassigned) [Example 108]: the concentration for a half-maximal effect (EC50) in data set [1] (Table 1a) was found to be 0.85 nM. The 50% cytotoxic concentration (CC50) in the data set on uninfected MT2 cells is > 1000 nM.

For the compound `COc1c(F)ccc2c(=O)n(-c3ccc(Cl)c4c(NS(C)(=O)=O)nn(C)c34)c([C@H](Cc3cc(F)cc(F)c3)NC(=O)Cn3nc(C(F)F)c4c3C(F)(F)[C@@H]3C[C@H]43)nc12` (single isomer, unassigned) [Example 110], the EC50 in data set [1] (Table 1a) came to 0.072 nM. Further, the cytotoxic concentration (CC50) with uninfected MT2 cells is > 1000 nM.

Regarding `COc1c(F)ccc2c(=O)n(-c3ccc(Cl)c4c(NS(C)(=O)=O)nn(C)c34)c([C@H](Cc3cc(F)cc(F)c3)NC(=O)Cn3ccc(C4CC4)n3)nc12` (single isomer, unassigned) [Example 112], the EC50 in data set [1] (Table 1a) amounted to 0.51 nM. The half-maximal cytotoxic concentration (CC50) with uninfected MT2 cells is > 1000 nM.

In the case of `COc1c(F)cc2c(=O)n(-c3ccc(Cl)c4c(NS(C)(=O)=O)nn(C)c34)c([C@H](Cc3cc(F)cc(F)c3)NC(=O)Cn3ccc(C4CC4)n3)nc2c1F` (single isomer, unassigned) [Example 116], the EC50 in data set [1] (Table 1a) worked out at 0.231 nM. Further, the CC50 in the data set with uninfected MT2 cells was > 1000 nM.

Turning to `Cn1ccc2nc(C(Cc3cc(F)cc(F)c3)NC(=O)Cn3nc(C(F)F)c4c3C(F)(F)[C@@H]3C[C@H]43)c(-c3ccc(Cl)c4c(NS(C)(=O)=O)nn(C)c34)cc21` (single isomer, unassigned) [Example 118], the concentration giving a half-maximal response (EC50) in data set [1] (Table 1a) is 0.162 nM. The cytotoxic concentration (CC50) with uninfected MT2 cells was > 10000 nM.

Regarding `Cn1ccc2nc([C@H](Cc3cc(F)cc(F)c3)NC(=O)Cn3nc(C(F)F)c4c3C(F)(F)[C@@H]3C[C@H]43)c(-c3ccc(Cl)c4c(NS(C)(=O)=O)nn(C)c34)cc21` (single isomer, unassigned) [Example 120], the 50% effective concentration (EC50) in data set [1] (Table 1a) amounted to 0.0753 nM. Moreover, in the data set on uninfected MT2 cells, the CC50 was > 10000 nM.

`Cn1ccc2nc([C@@H](Cc3cc(F)cc(F)c3)NC(=O)Cn3nc(C(F)F)c4c3C(F)(F)[C@@H]3C[C@H]43)c(-c3ccc(Cl)c4c(NS(C)(=O)=O)nn(C)c34)cc21` (single isomer, unassigned) [Example 122]: the concentration for a half-maximal effect (EC50) in data set [1] (Table 1a) came to 172 nM. Also, the CC50 with uninfected MT2 cells was > 10000 nM.

Take `Cc1cccc2nc([C@H](Cc3cc(F)cc(F)c3)NC(=O)Cn3nc(C(F)F)c4c3C(F)(F)[C@@H]3C[C@H]43)n(-c3ccc(Cl)c4c(NS(C)(=O)=O)nn(C)c34)c(=O)c12` (single isomer, unassigned) [Example 126]: the EC50 in data set [1] (Table 1a) came out at 0.054 nM. For the same compound, in the data set on uninfected MT2 cells, the cytotoxic concentration (CC50) is > 1000 nM.

As for `Cn1nc(NS(C)(=O)=O)c2c(Cl)ccc(-n3c([C@H](Cc4cc(F)cc(F)c4)NC(=O)Cn4nc(C(F)F)c5c4C(F)(F)[C@@H]4C[C@H]54)nc4cccc(C(F)(F)F)c4c3=O)c21` (single isomer, unassigned) [Example 128], the EC50 in data set [1] (Table 1a) stood at 0.62 nM. Moreover, the cytotoxic concentration (CC50) with uninfected MT2 cells is > 1000 nM.

Turning to `Cc1cccc2nc([C@H](Cc3cc(F)cc(F)c3)NC(=O)Cn3ccc(C4CC4)n3)n(-c3ccc(Cl)c4c(NS(C)(=O)=O)nn(C)c34)c(=O)c12` (single isomer, unassigned) [Example 134], in data set [1] (Table 1a), the EC50 turned out to be 2.21 nM. Moreover, in the data set on uninfected MT2 cells, the CC50 is > 1000 nM.

In the case of `Cn1nc(NS(C)(=O)=O)c2c(Cl)ccc(-n3c([C@H](Cc4cc(F)cc(F)c4)NC(=O)Cn4nc(C(F)F)c5c4C(F)(F)[C@@H]4C[C@H]54)nc4cc(C(F)(F)F)ccc4c3=O)c21` (single isomer, unassigned) [Example 138], in data set [1] (Table 1a), the EC50 is 0.042 nM. Further, in the data set on uninfected MT2 cells, the 50% cytotoxic concentration (CC50) is > 1000 nM.

For `Cn1nc(NS(C)(=O)=O)c2c(Cl)ccc(-n3c([C@H](Cc4cc(F)cc(F)c4)NC(=O)Cn4ccc(C(F)(F)F)n4)nc4cc(C(F)(F)F)ccc4c3=O)c21` (single isomer, unassigned) [Example 142], in data set [1] (Table 1a), the EC50 was determined as 4.98 nM. For the same compound, the half-maximal cytotoxic concentration (CC50) in the data set on uninfected MT2 cells was > 1000 nM.

Turning to `Cn1nc(NS(C)(=O)=O)c2c(Cl)ccc(-n3c([C@H](Cc4cc(F)cc(F)c4)NC(=O)Cn4ccc(C(F)(F)F)n4)nc4ccc(OC(F)(F)F)cc4c3=O)c21` (single isomer, unassigned) [Example 144], the EC50 in data set [1] (Table 1a) was 8.08 nM. The CC50 with uninfected MT2 cells was > 1000 nM.

For the compound `Cn1nc(NS(C)(=O)=O)c2c(Cl)ccc(-n3c([C@H](Cc4cc(F)cc(F)c4)NC(=O)Cn4ccc(C5CC5)n4)nc4c(F)ccc(F)c4c3=O)c21` (single isomer, unassigned) [Example 146], in data set [1] (Table 1a), the EC50 amounted to 0.62 nM. The CC50 in the data set with uninfected MT2 cells was > 1000 nM.

Consider `Cn1nc(NS(C)(=O)=O)c2c(Cl)ccc(-n3c([C@H](Cc4cc(F)cc(F)c4)NC(=O)Cn4nc(C(F)F)c5c4C(F)(F)[C@@H]4C[C@H]54)nc4c(F)ccc(F)c4c3=O)c21` (single isomer, unassigned) [Example 148], for which, in data set [1] (Table 1a), the concentration for a half-maximal effect (EC50) turned out to be 0.13 nM. Further, in the data set on uninfected MT2 cells, the 50% cytotoxic concentration (CC50) is > 1000 nM.

Take `Cn1nc(NS(C)(=O)=O)c2c(Cl)ccc(-n3c([C@H](Cc4cc(F)cc(F)c4)NC(=O)Cn4ccc(C5CC5)n4)nc4cc(C(F)(F)F)ccc4c3=O)c21` (single isomer, unassigned) [Example 151]: the concentration for a half-maximal effect (EC50) in data set [1] (Renilla, NL43, Table 1a) stood at 0.74 nM. Further, the cytotoxic concentration (CC50) in the data set with uninfected MT2 cells is > 1000 nM.

For `Cn1nc(NS(C)(=O)=O)c2c(Cl)ccc(-n3c([C@H](Cc4cc(F)cc(F)c4)NC(=O)Cn4ccc(C5CC5)n4)nc4ccc(OC(F)(F)F)cc4c3=O)c21` (single isomer, unassigned) [Example 153], the EC50 in data set [1] (Table 1a) was found to be 0.97 nM. For the same compound, in the data set with uninfected MT2 cells, the CC50 is > 1000 nM.

Turning to `Cn1nc(NS(C)(=O)=O)c2c(Cl)ccc(-n3c([C@H](Cc4cc(F)cc(F)c4)NC(=O)Cn4nc(C(F)F)c5c4C(F)(F)[C@@H]4C[C@H]54)nc4ccc(F)c(Cl)c4c3=O)c21` (single isomer, unassigned) [Example 161], the EC50 in data set [1] (Table 1a) amounted to 28.9 nM. The 50% cytotoxic concentration (CC50) in the data set with uninfected MT2 cells is > 1000 nM.

In the case of `COc1ccc2nc([C@H](Cc3cc(F)cc(F)c3)NC(=O)Cn3nc(C(F)F)c4c3C(F)(F)[C@@H]3C[C@H]43)n(-c3ccc(Cl)c4c(NS(C)(=O)=O)nn(C)c34)c(=O)c2c1` (single isomer, unassigned) [Example 174], the concentration for a half-maximal effect (EC50) in data set [1] (Table 1a) amounted to 0.096 nM. For the same compound, the CC50 with uninfected MT2 cells is > 1000 nM.

Take `Cn1nc(NS(C)(=O)=O)c2c(Cl)ccc(-n3c([C@H](Cc4cc(F)cc(F)c4)NC(=O)Cn4nc(C(F)F)c5c4C(F)(F)[C@@H]4C[C@H]54)nc4ccc(Cl)c(F)c4c3=O)c21` (single isomer, unassigned) [Example 177]: the EC50 in data set [1] (Table 1a) stood at 45 nM. The CC50 in the data set on uninfected MT2 cells is > 1000 nM.

In the case of `Cn1nc(NS(C)(=O)=O)c2c(Cl)ccc(-n3c([C@H](Cc4cc(F)cc(F)c4)NC(=O)Cn4nc(C(F)F)c5c4C(F)(F)[C@@H]4C[C@H]54)nc4cc(Cl)cc(Cl)c4c3=O)c21` (single isomer, unassigned) [Example 180], in data set [1] (Table 1a), the concentration giving a half-maximal response (EC50) was 87.4 nM. In the data set on uninfected MT2 cells, the 50% cytotoxic concentration (CC50) was > 1000 nM.

For `COc1cc(OC)c2c(=O)n(-c3ccc(Cl)c4c(NS(C)(=O)=O)nn(C)c34)c([C@H](Cc3cc(F)cc(F)c3)NC(=O)Cn3nc(C(F)F)c4c3C(F)(F)[C@@H]3C[C@H]43)nc2c1` (single isomer, unassigned) [Example 182], the EC50 in data set [1] (Table 1a) worked out at 0.061 nM. In addition, the CC50 with uninfected MT2 cells was > 1000 nM.

Regarding `Cn1nc(NS(C)(=O)=O)c2c(Cl)ccc(-n3c([C@H](Cc4cc(F)cc(F)c4)NC(=O)Cn4ccc(C5CC5)n4)nc4cccc(F)c4c3=O)c21` (single isomer, unassigned) [Example 184], the half-maximal effective concentration (EC50) in data set [1] (Table 1a) came out at 0.35 nM. Further, the half-maximal cytotoxic concentration (CC50) in the data set with uninfected MT2 cells is > 1000 nM.

For the origin of these results see patent US10954252B1, “Inhibitors of human immunodeficiency virus replication” (ViiV HEALTHCARE UK (NO.5) LIMITED, priority 2017, dated 2021).
